# “And” between values parts separate entries of the source, which are not always exact repeats. Equal entries are not always repeated.
# Key:
# [1] = test system: mice, 25 minutes renal ischemia/reperfusion; assay: Mouse renal ischemia reperfusion test (mortality, BUN/serum urea); type: in vivo; design: BUN, mean / Urea level: unit not given here; conditions: for BUN, mean: 5 mg/kg i.v.
# Procedure: SEQ ID NO:2 was tested and compared with PBS (control) in a double blind animal study for the peptide's relative ability to aid recovery in a mouse renal ischemia reperfusion test. In this test, the mice were anesthetized, and one kidney from each mouse was removed. The other kidney was tied off for 25 minutes, and the serum urea levels were allowed to increase. Both before and after tying off, the peptide was administered to thirty (30) different mice (5 mg oligopeptide/kg body mass intravenously), after which, the mortality of the mice was determined for each oligopeptide as well as was the BUN concentration at two hours, 24 hours and 72 hours.
# Under inhalation anesthesia, the left kidney with its artery and vein was isolated and occluded for 25 minutes using a microvascular clamp. During surgery animals were placed on a heating path to maintain body temperature at 37° C. Five minutes before placing the clamp, and 5 minutes before releasing the clamp, 5 mg/kg of peptide, dissolved in 0.1 mL of sterile saline, was administered intravenously. After reperfusion of the left kidney the right kidney was removed. Kidney function was assessed by measuring blood urea nitrogen before clamping, and at 2, 24, and 72 hours after reperfusion.
# To determine dose-response relationships SEQ ID NO:2, was tested in a dose-response manner in the mice test as described above. Peptides were tested at 0.3, 1, 3, 10 and 30 mg/kg dosages given as described in Example I. Serum urea levels are presented in Table 3.
# [2] = test system: BALB/c mice injected i.p. with LPS (E. coli 026:B6); assay: LPS-induced septic shock (endotoxin model) in BALB/c mice; type: in vivo, mouse; design: key to Sickness score of individual mouse: 0: No abnormalities.; 1: Percolated fur, but no detectable behavior differences compared to normal mice.; 2: Percolated fur, huddle reflex, responds to stimuli (such as tap on cage), just as active during handling as healthy mouse.; 3: Slower response to tap on cage, passive or docile when handled, but still curious when alone in a new setting.; 4: Lack of curiosity, little or no response to stimuli, quite immobile.; 5: Labored breathing, inability or slow to self-right after being rolled onto back (moribund, sacrificed).; Dead; conditions: for number of mice with sickness score 1 / number of mice with sickness score 2: peptide twice (t = 2 hr and 24 hr) 5 mg/kg; for Survival %: group of 6, 48 hrs
# Procedure: Mice used in sepsis or septic shock experiments: Female BALB/c mice of 8-12 weeks of age were used for all experiments. The animals were bred in our facility under specific pathogen-free conditions according to the protocols described in the Report of European Laboratory Animal Science Associations (FELASA) Working group on Animal Health (Laboratory Animals 28: 1-24, 1994).
# Injection protocols: For the endotoxin model, BALB/c mice were injected i.p. with 150-300 μg LPS (E. coli 026:B6; Difco Lab., Detroit, Mich., USA). Control groups were treated with PBS i.p. only. To test the effect of peptides, they were dissolved in PBS and injected i.p. at predetermined points in time after LPS treatment.
# Mice were scored for sickness severity using the following measurement scheme: • 0 No abnormalities. • 1 Percolated fur, but no detectable behavior differences compared to normal mice. • 2 Percolated fur, huddle reflex, responds to stimuli (such as tap on cage), just as active during handling as healthy mouse. • 3 Slower response to tap on cage, passive or docile when handled, but still curious when alone in a new setting. • 4 Lack of curiosity, little or no response to stimuli, quite immobile. • 5 Labored breathing, inability or slow to self-right after being rolled onto back (moribund, sacrificed). • D Dead […]
# A comparative trial was set up to compare peptide MTR and SEQ ID NO:2. The comparative trial comprised 6 groups of 6 animals; two groups (1A and 1B) receiving placebo (PBS), one group (2) peptide MTR (source Pepscan, Lelystad, NL), one group (3) receiving peptide MTR (source Ansynth), one group (4) receiving peptide SEQ ID NO:2 (source Pepscan) and one group peptide SEQ ID NO:2 (source Ansynth). Peptide/placebo in these groups was administered 2 hours after LPS. LPS (source) was used at 10-11 mg/kg. Sickness scores were done at 0, 2, 22 26 42 and 48 hours after LPS injection.
# [3] = 5 mg/kg i.p. given both early (2 hours) or late (24 hours)
substance,measurement,setting,value
"AQGV [tetrapeptide derived from human chorionic gonadotropin, alanine replacement of LQGV]",Mortality in dose-response experiment,"[1]; 0.3 mg/kg, 24 h",0-9
same,Urea level,"[1]; 0.3 mg/kg, 24 h",62.4
same,Mortality in dose-response experiment,"[1]; 0.3 mg/kg, 72 h",2-10
same,Urea level,"[1]; 0.3 mg/kg, 72 h",86.7
same,Mortality in dose-response experiment,"[1]; 1.0 mg/kg, 24 h",0-10
same,Urea level,"[1]; 1.0 mg/kg, 24 h",50.0
same,Mortality in dose-response experiment,"[1]; 1.0 mg/kg, 72 h",1-8
same,Urea level,"[1]; 1.0 mg/kg, 72 h",52.6
same,Mortality in dose-response experiment,"[1]; 3.0 mg/kg, 24 h",1-10
same,Urea level,"[1]; 3.0 mg/kg, 24 h",37.4
same,Mortality in dose-response experiment,"[1]; 3.0 mg/kg, 72 h",0-10
same,Urea level,"[1]; 3.0 mg/kg, 72 h",19.6
same,mortality at 72 hours post-reperfusion,"[1]; 5 mg/kg i.v. before and after clamping, dead/total",0/10
same,Mortality in dose-response experiment,"[1]; 10.0 mg/kg, 24 h",0-10
same,Urea level,"[1]; 10.0 mg/kg, 24 h",41.2
same,Mortality in dose-response experiment,"[1]; 10.0 mg/kg, 72 h",0-8
same,Urea level,"[1]; 10.0 mg/kg, 72 h",37.1
same,Mortality in dose-response experiment,"[1]; 30.0 mg/kg, 24 h",0-8
same,Urea level,"[1]; 30.0 mg/kg, 24 h",47.8
same,Mortality in dose-response experiment,"[1]; 30.0 mg/kg, 72 h",3-10
same,Urea level,"[1]; 30.0 mg/kg, 72 h",38.0
same,"BUN, mean",[1]; 2 hr after reperfusion,16.62
same,"BUN, mean",[1]; 24 hr after reperfusion,26.36
same,"BUN, mean",[1]; 72 hr after reperfusion,22.31
same,"BUN, mean",[1]; t = 0 hr (before clamping),9.713
same,clinical signs of shock at 84 hours after LPS-treatment,[2]; [3],no remaining clinical signs of shock
same,survival at 84 hours after LPS-treatment,[2]; [3],100%
same,number of mice with sickness score 1,"[2]; LPS dose 10.5, t = 24 hr",2
same,number of mice with sickness score 2,"[2]; LPS dose 10.5, t = 24 hr",3
same,number of mice with sickness score 1,"[2]; LPS dose 10.5, t = 48 hr",5
same,number of mice with sickness score 1,"[2]; LPS dose 11, t = 24 hr",2
same,number of mice with sickness score 2,"[2]; LPS dose 11, t = 24 hr",4
same,number of mice with sickness score 1,"[2]; LPS dose 11, t = 48 hr",6
same,% survival,"[2]; single injection 5 mg/kg 2 hours after LPS (300 μg), time 0 hours",100%
same,% survival,"[2]; single injection 5 mg/kg 2 hours after LPS, time 14 hours",100%
same,% survival,"[2]; single injection 5 mg/kg 2 hours after LPS, time 24 hours",100%
same,% survival,"[2]; single injection 5 mg/kg 2 hours after LPS, time 48 hours",100%
same,% survival,"[2]; single injection 5 mg/kg 2 hours after LPS, time 84 hours",100%
same,% survival,"[2]; single injection 5 mg/kg 24 hours after LPS (300 μg), time 0 hours",100%
same,% survival,"[2]; single injection 5 mg/kg 24 hours after LPS, time 14 hours",100%
same,% survival,"[2]; single injection 5 mg/kg 24 hours after LPS, time 24 hours",100%
same,% survival,"[2]; single injection 5 mg/kg 24 hours after LPS, time 48 hours",100%
same,% survival,"[2]; single injection 5 mg/kg 24 hours after LPS, time 84 hours",100%
same,Sickness score of individual mouse,"[2]; source Ansynth (#Ansynth 12/46) 2 hours after LPS 10-11 mg/kg, 0 hrs (before peptide)",0
same,Sickness score of individual mouse,"[2]; source Ansynth (#Ansynth 12/46) 2 hours after LPS 10-11 mg/kg, 2 hrs (at peptide administration)",2
same,Sickness score of individual mouse,"[2]; source Ansynth (#Ansynth 12/46) 2 hours after LPS 10-11 mg/kg, 22 hrs",3 (2×) and 2 (3×) and 4
same,Sickness score of individual mouse,"[2]; source Ansynth (#Ansynth 12/46) 2 hours after LPS 10-11 mg/kg, 26 hrs",3 (2×) and 2 (3×) and 4
same,Sickness score of individual mouse,"[2]; source Ansynth (#Ansynth 12/46) 2 hours after LPS 10-11 mg/kg, 42 hrs",2 and 3 and 1 (3×) and 5
same,Sickness score of individual mouse,"[2]; source Ansynth (#Ansynth 12/46) 2 hours after LPS 10-11 mg/kg, 48 hrs",1 (5×) and dead
same,Survival %,[2]; source Ansynth (#Ansynth 12/46) 2 hours after LPS 10-11 mg/kg,83%
same,Sickness score of individual mouse,"[2]; source Pepscan (#970/#971) 5 mg/kg 2 hours after LPS 10-11 mg/kg, 0 hrs (before peptide)",0
same,Sickness score of individual mouse,"[2]; source Pepscan (#970/#971) 5 mg/kg 2 hours after LPS 10-11 mg/kg, 2 hrs (at peptide administration)",2
same,Sickness score of individual mouse,"[2]; source Pepscan (#970/#971) 5 mg/kg 2 hours after LPS 10-11 mg/kg, 22 hrs",2 (4×) and 3 and 4
same,Sickness score of individual mouse,"[2]; source Pepscan (#970/#971) 5 mg/kg 2 hours after LPS 10-11 mg/kg, 26 hrs",2 (3×) and 3 (2×) and 5
same,Sickness score of individual mouse,"[2]; source Pepscan (#970/#971) 5 mg/kg 2 hours after LPS 10-11 mg/kg, 42 hrs",2 (5×) and dead
same,Sickness score of individual mouse,"[2]; source Pepscan (#970/#971) 5 mg/kg 2 hours after LPS 10-11 mg/kg, 48 hrs",2 (3×) and 1 (2×)
same,Survival %,[2]; source Pepscan (#970/#971) 5 mg/kg 2 hours after LPS 10-11 mg/kg,83%

# Source: patent US8680059B2, “Oligopeptide acetate and formulations thereof” (Biotempt B.V., priority 1998, dated 2014)
